Reference: patent US20110184057A1, “PARENTERAL TREATMENT WITH STATINS” (priority 2008, published 2011)

Assay: Plasma lovastatin levels in rats after a single oral or dermal dose, by HMG-CoA reductase inhibition assay
Type: in vivo, rat
Conditions: intact rats, single dose, 1, 3, 6 and 24 hours; dermal in 100% DMSO vs oral gavage in 0.5% methylcellulose
Experimental: For oral administration, a suspension of lovastatin was prepared in 0.5% methylcellulose and administered by gavage.

Structure (SMILES): CC[C@H](C)C(=O)O[C@H]1C[C@@H](C)C=C2C=C[C@H](C)[C@H](CC[C@@H]3C[C@@H](O)CC(=O)O3)[C@H]21 [lovastatin]
- plasma concentrations of lovastatin, dermal versus oral: greater, less variable and more prolonged than when the drug was given orally
